Measurements reported in publication PMC10217883, “Structure of Leishmania donovani 6-Phosphogluconate Dehydrogenase and Inhibition by Phosphine Gold(I) Complexes: A Potential Approach to Leishmaniasis Treatment” (International Journal of Molecular Sciences, 2023).
Read-outs that look alike come from different tables or passages of the source. Values belong to the compound of their own block, whether it stands above or below them.

Key:
[1] = target: T1, Ld6PGD (Leishmania donovani, UniProt Q18L02); assay: Reversibility of Ld6PGD inhibition (incubation at high concentration, then dilution); format: biochemical
Procedure: In detail, 14 nM Ld6PGD was incubated with 30 µM auranofin for 10 min at room temperature. […] Afterwards, NADP^+ and 6PG were added to start the reaction, either at substrate saturation (300 µM 6PG, 200 µM NADP^+) or at concentrations close to KM (25 µM 6PG, 20 µM NADP^+). For comparison, controls containing either no inhibitor (100% activity) or inhibitor in the concentration remaining after dilution were prepared. NADPH production was monitored at ex340 nm using the Tecan Infinite M200 plate reader in 96-well plates. Specific activities were calculated from reaction rates. […] Inhibition was considered reversible if the activity of the sample was equal to the controls.

[2] = system: Leishmania parasites; design: method as in PMID 24328400, PMID 32463611, PMID 33139647; conditions: trypanosomatid parasites; cited from earlier work
[3] = target: TR from Leishmania infantum (LiTR); design: method as in PMID 21833767; conditions: read-out: Ki against recombinant TR from Leishmania infantum (LiTR); cited from earlier work
[4] = target: T1, Ld6PGD; assay: Mode-of-inhibition study, substrate titration at constant auranofin concentrations (Michaelis-Menten); format: biochemical; conditions: for Vmax, NADP+ titrated: 6PG in saturation; for Vmax, 6PG titrated: NADP+ in saturation
Procedure: For the mechanistic characterization of auranofin, either NADP^+ (0–200 µM) or 6PG (0–250 µM) was titrated at different constant compound concentrations around the IC50 (0–30 µM), while keeping the second substrate in saturation (6PG: 300 µM, NADP^+: 200 µM). To determine the compound mode of inhibition, the relationship between initial velocity (v0) and substrate concentrations ([S]) at various constant compound concentrations was analyzed by plotting the data as Michaelis–Menten curves using GraphPad Prism; KM values and Vmax were calculated with GraphPad Prism as well.

[5] = target: T1, Ld6PGD; assay: Dose-response of gold(I)-based compounds against recombinant Ld6PGD (NADPH fluorescence); format: biochemical
Procedure: (§1) Dose–response curves of gold(I)-based compounds against Ld6PGD were determined in 96-well plates using a Tecan Infinite M200 plate reader (Tecan, Maennedorf, Switzerland). An amount of 10 mM of each compound was dissolved in 100% DMSO and afterwards diluted in assay buffer to the required concentrations (highest final compound concentration of 100 μM). The DMSO tolerance of the enzymes was determined in advance by incubating the enzymes with up to 6% DMSO and determining their activity. Up to this concentration, no impairment of the enzymes’ catalytic activity was observed. In addition, a DMSO control was included in each measurement.
Different compound concentrations were added to one volume of enzyme mix (final concentrations: 50 mM Tris (pH 7.5), 0.005% Tween 20, 1 mg∙mL^−1 BSA, 0.7 nM Ld6PGD/0.7 nM Pf6PGD/0.9 nM Hs6PGD) and incubated for ten minutes. To start the reaction, one volume substrate mix (final concentrations: 50 mM Tris (pH 7.5), 0.005% Tween 20, 1 mg∙mL^−1 BSA, 3.3 mM MgCl2, 25/20/25 µM 6PG, 20 µM NADP^+ for Ld6PGD, Pf6PGD and Hs6PGD) was added to the wells. To increase the sensitivity of the assay, the increase of NADPH was monitored by measuring the fluorescence of NADPH at excitation 340 nm/emission 460 nm (ex340/em460). The substrate mix without 6PG served as a positive control (100% inhibition) and without the compound, but with DMSO as a negative control (100% activity). The assay contained both substrates either in saturation or at concentrations close to KM to facilitate the identification of competitive inhibitors. The reaction rate was calculated by dividing the relative fluorescence units (RFU) by time, and only a linear increase in absorbance/fluorescence was considered. IC50 values were calculated using GraphPad Prism 9.0 software and Microsoft Excel.

[6] = target: T2, Hs6PGD (Homo sapiens, UniProt P52209); assay: Dose-response against recombinant Hs6PGD (NADPH fluorescence); format: biochemical; conditions: 25 µM 6PG, 20 µM NADP+, highest concentration 100 µM; read-out: IC50 for recombinant protein Hs6PGD
T2 sequence (P52209 1-483): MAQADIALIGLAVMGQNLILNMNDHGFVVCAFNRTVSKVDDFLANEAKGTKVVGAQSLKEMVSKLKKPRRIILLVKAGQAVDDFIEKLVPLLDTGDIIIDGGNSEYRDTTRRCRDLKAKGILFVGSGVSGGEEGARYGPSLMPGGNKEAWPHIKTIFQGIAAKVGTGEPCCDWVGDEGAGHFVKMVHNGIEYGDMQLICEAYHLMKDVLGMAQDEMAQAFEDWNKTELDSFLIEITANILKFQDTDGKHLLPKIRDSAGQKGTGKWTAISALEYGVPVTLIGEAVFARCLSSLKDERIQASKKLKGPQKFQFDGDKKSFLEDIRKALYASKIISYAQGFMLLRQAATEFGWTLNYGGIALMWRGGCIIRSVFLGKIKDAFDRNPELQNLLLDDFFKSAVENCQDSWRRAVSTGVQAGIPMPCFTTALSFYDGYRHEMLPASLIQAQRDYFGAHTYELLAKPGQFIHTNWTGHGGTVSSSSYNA
Procedure: as §1
(§2) Different compound concentrations were added to one volume of enzyme mix (final concentrations: 50 mM Tris (pH 7.5), 0.005% Tween 20, 1 mg∙mL^−1 BSA, 0.7 nM Ld6PGD/0.7 nM Pf6PGD/0.9 nM Hs6PGD) and incubated for ten minutes. […] To increase the sensitivity of the assay, the increase of NADPH was monitored by measuring the fluorescence of NADPH at excitation 340 nm/emission 460 nm (ex340/em460). […] The reaction rate was calculated by dividing the relative fluorescence units (RFU) by time, and only a linear increase in absorbance/fluorescence was considered. IC50 values were calculated using GraphPad Prism 9.0 software and Microsoft Excel.

[7] = target: Pf6PGD (Plasmodium falciparum, UniProt Q8IKT2); assay: Dose-response against recombinant Pf6PGD (NADPH fluorescence); format: biochemical
Procedure: as §1, §2

[8] = target: Leishmania donovani 6-phosphogluconate dehydrogenase wild type (Leishmania donovani); assay: SEC; HiLoad 16/60 Superdex 200 in buffer A (500 mM NaCl, 50 mM Tris, pH 7.8); native, with 5 mM DTT, with 2 mM H2O2, with 0.2 mM 6PG, 0.2 mM NADP+ or 0.2 mM NADPH; varying protein concentrations; the dimer peak was the same under all conditions

Compound: CC(=O)OC[C@H]1O[C@@H]([S-])[C@H](OC(C)=O)[C@@H](OC(C)=O)[C@@H]1OC(C)=O.CCP(CC)CC.[Au+] [Auranofin]
Ld6PGD activity of undiluted sample ([1]; 30 µM auranofin (pre-dilution), substrates at KM): completely inhibited | Reversibility of Ld6PGD inhibition ([1]; 30 µM pre-dilution, diluted to 3 µM, 10 min each): irreversible | Concentrations at which increase in ROS and apoptotic-like cell death were observed [2]: 10 to 50 µM | Ki [3]: 155 ± 35 nM | Mode of inhibition against 6PG ([4]; 6PG titrated, NADP+ 200 µM): mixed type of inhibition | Mode of inhibition against NADP+ ([4]; NADP+ titrated, 6PG 300 µM): non-competitive inhibition | Vmax, NADP+ titrated ([4]; auranofin 1.875 µM): 35.9 U/mg | Vmax, 6PG titrated ([4]; auranofin 1.875 µM): 36.43 U/mg | Vmax, NADP+ titrated ([4]; auranofin 3.75 µM): 34.45 U/mg | Vmax, 6PG titrated ([4]; auranofin 3.75 µM): 35.23 U/mg | Vmax, NADP+ titrated ([4]; auranofin 7.5 µM): 34.92 U/mg | Vmax, 6PG titrated ([4]; auranofin 7.5 µM): 29.59 U/mg | Vmax, NADP+ titrated ([4]; auranofin 15 µM): 31.07 U/mg | Vmax, 6PG titrated ([4]; auranofin 15 µM): 21.59 U/mg | Vmax, NADP+ titrated ([4]; auranofin 30 µM): 23.34 U/mg | Vmax, 6PG titrated ([4]; auranofin 30 µM): 7.71 U/mg | Inhibition of Ld6PGD at 50 µM ([5]; 50 µM auranofin): completely inhibited | IC50 against Ld6PGD with NADP+ at saturation ([5]; enzyme incubated with auranofin and NADP+ at saturation, compared with IC50 at KM): unaffected

Compound: CC[P](CC)(CC)=[Au][S][C@@H]1O[C@H](COC(C)=O)[C@@H](OC(C)=O)[C@H](OC(C)=O)[C@H]1OC(C)=O [Auranofin]
IC50 [6]: > 100 µM | IC50 [7]: 20.1 ± 1.5 µM | Ki [5]: 3.8 ± 0.4 µM | IC50 ([5]; IC50 against Ld6PGD with 6PG at saturation, enzyme incubated with auranofin and 6PG at saturation): 40.5 ± 1.9 µM | IC50 ([5]; IC50 for recombinant protein Ld6PGD, substrates close to KM (25 µM 6PG, 20 µM NADP+), 10 min incubation with enzyme): 8.6 ± 1 µM

Compound: [Cl][Au].c1ccc(P(c2ccccc2)c2ccccc2)cc1 [Ph3PAuCl, chloro(triphenylphosphine)gold(I)]
IC50 ([5]; substrates close to KM (25 µM 6PG, 20 µM NADP+), 10 min incubation with enzyme, read-out: IC50 for recombinant protein Ld6PGD): 2.1 ± 0.3 µM

stoichiometry N [8]: 2
Compound: Leishmania donovani 6-phosphogluconate dehydrogenase wild type (enzyme)
